Like-named read-outs stand apart in the source and are kept apart here. Ends that are not written are not given here.

Here are results for eleven molecules from US4866161A, “Inhibition of tartar deposition by polyanionic/hydrophobic peptides and derivatives thereof which have a clustered block copolymer structure” (University of South Alabama, priority 1987, dated 1989).

A short description of series [1]: pH-drift assay, calcium phosphate. How it is done:
A solution supersaturated with respect to calcium phosphate is prepared by separately pipetting 0.1 ml of 1.32 M CaCl2 dihydrate and 0.1 ml of 0.90 M NaHl PO4 into 29.8 ml of distilled water. This yields initial concentrations of 4.4 mM Ca^2+ and 3.0 mM dissolved inorganic phosphorus (DIP). The reaction vessel is a 50 ml, round-bottom, 3-necked flask partially immersed in a thermostated water bath at 20° C. The reaction vessel is closed to the atmosphere. The reaction begins upon mixing the reactants with an initial pH of 7.4.
Amorphous calcium phosphate (ACP) nucleates immediately and slowly grows as indicated by a slight decrease in pH during the first 30 minutes or so of the assay. Following this, ACP begins to transform to calcium hydroxylapatite (HAP), Ca10 (PO4)6 (OH)2, as indicated by a marked acceleration in the downward pH drift. The reaction ceases as reactants are depleted and the pH is lowered.
^1 Assay Conditions: Ca at 4.4 mM, dissolved inorganic phosphorus at […]

Series [2] is described as follows: pH-drift assay, calcium carbonate. Here is the method: A solution supersaturated with respect to CaCO03 is prepared by separately pipetting 0.3 ml of 1.0 M CaCl2 dihydrate and 0.6 ml of 0.5 M NaHCO3 into 29.1 ml of artificial seawater (0.5 NaCl, 0.011 M KCl). The reaction vessel is a 50 ml, 3-necked, round-bottom flask partially immersed in a thermostated water bath at 20° C. The reaction vessel is closed to the atmosphere to minimize exchange of CO2 The reaction is started by adjusting the pH upward to 8.3 by titration of μl amounts of 1 N NaOH by digital pipette. The initial concentrations are 10 mM each of Ca^2+ and dissolved inorganic carbon (DIC). The reaction is monitored by pH electrode and recorded by strip chart.
The reaction may be quantified by calculations based on DIC equilibria to give the amount of precipitation versus time.
The conditions of the assay were […] dissolved inorganic carbon at 20° C. and 30 ml of artificial seawater (0.5 M NaCl, 0.01 M KCl).

Series [3] can be described thus: constant composition assay, CaCO3. Particulars: FIG. 5, pH 8.30 held constant, 20° C., doses matched for about 2 hours stabilization. Here is the method:
A 50 ml solution of 10 mM CaCl2 and 10 mM dissolved inorganic carbon (DIC) was adjusted to pH 8.34 by digital pipetting of μl amounts of 1 N NaOH. The temperature was held constant at 20° C. using a water-jacketed reaction vessel and a thermostated bath. After about a 6 minute period during which CaCO3 nucleation occurs, the pH beings to drift downward as Ca^2+ and CO3^2- ions are removed from solution as solid crystals. At pH 8.30, inhibitors were added which stabilized the pH drift for certain periods of time. The concentrations of inhibitors used in the experiments shown in FIG. 5 were matched so that the amount of stabilization or inhibition of nucleation was the same, in this case about 2 hours. The doses required for this effect ranged between 0.1 to 0.5 μg/ml of inhibitor depending on the type When crystallization began again, the pH would drift downward. However, it was held constant at pH 8.30±0.02 by automatic titration of 0.5 M CaCl2 and 0.5 M NaCO3 from separate burettes linked via the pH electrode to a computer-assisted titrimeter.

The conditions of series [4]: inhibitor 37 μg/ml; adapted from Hay et al. 1979; cited from earlier work.

With `O=P(O)(O)CN(CCN(CP(=O)(O)O)CP(=O)(O)O)CCN(CP(=O)(O)O)CP(=O)(O)O` [DENTPP, diethylene triamine pentamethylene phosphonic acid], in series [1] (inhibitor 5 μg/ml), the “PERIOD OF ACP FORMATION” value turned out to be 100 min; the “pH/min, ACP FORMATION” value turned out to be 0.0012 pH/min; the “pH/min, APATITE FORMATION” value is reported as 0.019 pH/min.

As to “AAAAAAAAAADDDDDDDDDD [H--(Ala)10 --(Asp)10 --OH]”, the “inhibitory activity on CaCO3 crystallization, comparison of Table 1 in words” value in series [2] (Table 1) is reported as “decreased activity”.

With “AAAAAAGDGDGDGDGDGDGD [H--(ALA)6 --(GLY-13 ASP)7 --OH, poly (Asp-Gly)7 (Ala)6]”, the “inhibition of crystal nucleation (duration of induction period), in words” value in series [2] (FIG. 6, equal doses, artificial seawater, 20° C.) is listed as “very little activity relative to the control curve”. In addition, in series [2] (peptide 0.20 μg/ml), the “CRYSTAL GROWTH RATE” value is reported as 0.048 ± 0.0042 pH/MIN and the “INDUCTION PERIOD” value was found to be 7.2 ± 0.83 min.

With “DDDDDDDDDDDDDDDDDDDD [H--(ASP)20--OH, poly (Asp)20]”, the “CRYSTAL GROWTH RATE” value in series [2] (peptide 0.02 μg/ml) was determined as 0.047 ± 0.0030 pH/MIN; in series [2] (peptide 0.035 μg/ml), 0.041 ± 0.0050 pH/MIN. Besides, the “INDUCTION PERIOD” value is 21.5 ± 0.50 min in series [2] (peptide 0.02 μg/ml), 39.2 ± 10.8 min in series [2] (peptide 0.035 μg/ml) and above 180 min in series [2] (peptide 0.050 μg/ml).

Turning to “GDGDGDGDGDGDGDGDGDGD [H--(GLY--ASP)10 --OH]”, in series [2] (peptide 0.1 μg/ml), the “CRYSTAL GROWTH RATE” value stood at 0.047 ± 0.0097 pH/MIN and the “INDUCTION PERIOD” value turned out to be 36.0 ± 5.20 min.

With “GSDGSDGSDGSDGSDGSDGSD [H--(GLY--SER--ASP)7 --OH]”, in series [2] (peptide 0.1 μg/ml), the “CRYSTAL GROWTH RATE” value came out at 0.057 ± 0.0034 pH/MIN and the “INDUCTION PERIOD” value is 5.83 ± 1.04 min.

Take H--(ALA)10 (ASP)15 --OH: in series [2] (peptide 0.050 μg/ml), the “CRYSTAL GROWTH RATE” value stood at 0.042 ± 0.0039 pH/MIN and the “INDUCTION PERIOD” value stood at 32.0 ± 10.4 min.

“Polyaspartate [Polyaspartate, MW 15,000]”: in series [1] (inhibitor 10 μg/ml), the “pH/min, ACP FORMATION” value turned out to be 0.0040 pH/min and the “pH/min, APATITE FORMATION” value was found to be 0.106 pH/min. For the same molecule, the “PERIOD OF ACP FORMATION” value in series [1] (inhibitor 10 μg/ml, Ca 4.4 mM, DIP 3.0 mM, initial pH 7.40, 20° C.) was 30 min. In addition, in series [1] (inhibitor 15 μg/ml), the “PERIOD OF ACP FORMATION” value came to 48 min; the “pH/min, ACP FORMATION” value is 0.0050 pH/min; the “pH/min, APATITE FORMATION” value was 0.070 pH/min.

Polyaspartate [matrix analog]: the “rate of crystallization after the period of stabilization” value in series [3] is recorded as “not observed”.

Regarding “SDSDSDSDSDSDSDSDSDSD [H--(SER--ASP)10 --OH]”, in series [2] (peptide 0.1 μg/ml), the “CRYSTAL GROWTH RATE” value is 0.048 ± 0.0040 pH/MIN and the “INDUCTION PERIOD” value is 29.8 ± 4.99 min.

As for “Statherin: salivary protein, most effective inhibitor among salivary proteins that regulate mineral deposition in the oral cavity (DSSEEKFLRRIGRFGYGYGPYQPVPEQPLYPQPYQPQYQQYTF; UniProt P02808 20-62, looked up)”, in series [4], the “PERIOD OF ACP FORMATION” value was 48 min; the “pH/min, ACP FORMATION” value was 0.0045 pH/min; the “pH/min, APATITE FORMATION” value is 0.0090 pH/min.
